Reference: patent US5622944A, “Testosterone prodrugs for improved drug delivery” (Affymax Technologies N.V., priority 1995, dated 1997)
Where a name gives a salt, the structure may show the parent alone. Read-outs that look alike come from different tables or passages of the source.

Experiments:
[1] = Steady state flux across human skin (iontophoretic); type: in vitro ADME; conditions: iontophoresis (Table 4)
Protocol: Another useful factor for in vitro assessment of skin permeability of a target drug or drug complex is steady state flux. Typically, when performing a kinetic analysis of the skin-penetrating ability of a target compound through a membrane, such as skin, such an analysis includes an assessment of the lag time and the steady state flux or permeation rate. The ideal membrane for such determinations is human skin.
Steady state flux across human skin was determined for three distinct testosterone/chemical modifier complexes, as shown in FIG. 5 and in Table 4. In FIG. 5, iontophoretic flux rates over time are plotted for testosterone-17β-stachydrine ester, chloride salt [2.9], (closed circles), testosterone-17β-(L-carnitine ethyl ester) carbonate, iodide salt [1.7] (solid squares), and testosterone-17β-choline carbonate, bromide salt [1.4] (open circles). […] Steady state flux values in FIG. 5 are expressed as testosterone equivalents in units of μg/cm^2 h.
Iontophoretically-induced steady state flux across human skin was determined for three distinct testosterone/chemical modifier complexes, testosterone-17β-stachydrine ester, chloride salt [2.9], testosterone-17β-(L-carnitine ethyl ester) carbonate, iodide salt [1.7], and testosterone-17β-choline carbonate, bromide salt [1.4]. The in vitro skin flux experiments were carried out in a similar fashion to those described above, with the exception that human skin was used as the membrane.
Steady state flux values provide an indication of the total amount of drug (or drug complex) that can penetrate the skin, under a given set of experimental conditions.

in vitro [2] = type: cell-based, human; conditions: human, dermal fibroblasts, MTT
Protocol: (§1) As discussed above, the chemical modifier, when present in the subject in its free or released form, and in appropriately administered amounts, should preferably be non-toxic. Additionally, any further in vivo degradation products of the chemical modifier should be non-toxic, as well. Table 2 provides in vitro relative cytotoxicity data for a number of testosterone/chemical modifier complexes, prepared in accordance with the invention. The cytotoxicity assessment was carried out by examining the viability of human dermal fibroblasts in the presence of a number of testosterone/chemical modifier complexes in accordance with the present invention. Details of the experimental protocol are summarized in Example 27.
(§2) The viability of human dermal fibroblasts in the presence of the 17-hydroxy sterol/chemical modifier compounds was assayed using MTT (3-[4,5-dimethylthiazol-2-yl]-2,5-diphenyltetrazolium bromide) reduction to formazan by mitochondrial enzymes as an indicator of cytotoxicity (Swisher, et al.). Confluent fibroblast cells were incubated for 2 or 16 hours in the presence of increasing concentrations of drug complex. At the end of the incubation period, medium was replaced for 4 hours by medium containing the tetrazolium salt, MTT. Metabolism of MTT to a blue formazan was quantitated by spectrophotometry at 540 nm.

in vitro [3] = type: in vitro ADME; conditions: human, serum, 37° C.
Protocol: The hydrolytic activity of the sterol prodrug may be evaluated by studies of the chemical or enzymatic conversion of the prodrug to the unmodified parent compound, as described in Example 26.
Generally, the sterol/chemical modifier complex is dissolved in a minimum amount of a suitable solvent, such as ethanol, and the resulting solution is added to a sample of human serum. Following incubation, aliquots are then removed at various time points and analyzed to determine the extent of hydrolysis. Table I herein lists the representative serum half-lives of a number of testosterone prodrugs according to the present invention.
The rates of conversion are readily determined, for example by spectrophotometric methods or by gas-liquid or high performance liquid chromatography. Half-lives and other kinetic parameters may then be calculated using standard techniques.
Determination of Testosterone Prodrug Hydrolysis in Serum
Stock solutions (6 mM) of the testosterone prodrugs were prepared in ethanol (dissolution was accomplished by vortexing, sonication, or warming at 37° C., as needed). If required for dissolution, one drop of a co-solvent such as dimethylsulfoxide, dimethylformamide or methanol was added. (Acetonitrile is undesirable because it deactivates the serum enzymes).
HPLC separation methods were established for each study by dilution of the above stock solutions (6 μl) in acetonitrile (1 ml) to form 36 μM solutions. Samples (10 μl) were injected onto a Nucleosil 5C8 column (250×4 mm ID) fitted with an additional guard column (11×4 mm ID) and eluted with a mobile phase of approximately 65% HPLC grade water and 35% trifluoroacetic acid in acetonitrile (0.1% TFA in acetonitrile). Exact proportions of the mobile phase eluents were adjusted in each case to give optimum separation and run times.
Freshly defrosted human serum (3 ml, Sigma) was warmed at 37° C. for five minutes and then the testosterone prodrug stock solution (60 μl) was added with vortexing. […] The aliquots were added to 800 μl of 2% zinc sulfate solution in a 1.5 ml disposable microcentrifuge tube, vortexed immediately and centrifuged at 14,000 RPM for 3 minutes. The supernatants (10 μl) were injected onto the HPLC and peak areas used to determine the percent of parent drug formed or percent of prodrug remaining. Serum blanks were prepared similarly by addition of serum to the zinc sulfate solution, followed by centrifugation. Initial (time=0) samples were prepared by adding serum to the zinc sulfate solution, followed by addition of the complex and separation by centrifugation. The time=0 samples, as well as the original stock solutions, were also used to assess the stability of the complex in the absence of enzyme. Half-lives were determined using the following equation : […]
and plotting time (x ordinate) versus the natural logarithm of percent remaining prodrug (y ordinate) to obtain the slope (m) and the y intercept (b).

[4] = Water solubility (H2O sol)
[5] = type: in vitro ADME, mouse; conditions: for Flux, active electrotransport (ET): murine skin, active cells (ETm), 10 mM donor, 100 uA/cm^2, 6 h, 32° C.
Protocol: In vitro electrotransport of testosterone/chemical modifier complexes across hairless mouse skin was evaluated as described in Example 28. The experiments were conducted using modified Valia-Chien cells having 1.0 ml donor and 2.5 ml receptor cells. Anodic transport was carried out using a silver wire-based salt bridge in the donor compartment and a silver chloride cathode in the receptor. Cathodic transport was effected by reversing the electrode configuration. The cells were connected in series and a constant current and temperature were supplied to each cell.
After a predetermined period of time (6 h), aliquots were removed from the receiver phase for immediate analysis by HPLC to determine cumulative flux.
The electrotransport of testosterone/chemical modifier complexes was achieved using modified Valia-Chien cells (1.0 ml donor and 2.5 ml receptor cells). Full thickness, hairless mouse skin (Charles River Labs, Wilmington, Mass.) was soaked for one hour in phosphate buffered saline (PBS, pH=7.4) before placing between each compartment (dermal side of skin facing toward receptor). One passive (P1:data) and two or more (ETm :data) active cells were used to screen each compound.
A 10 mM (1 ml) aqueous solution of testosterone drug/prodrug was placed in the donor (unstirred) compartment and the receptor (stirred) was filled with 2.5 ml of PBS. In order to check for egress due to e.g. damaged skin, a zero hour sample of receptor ([…]) was taken one half hour after the drug solution was placed in the donor compartment. Replacement fluid of equal sample volume was added to the receptor compartment immediately after samples were taken.
Anodic electrotransport was achieved using a silver wire (immersed in a polyvinylalcohol-based salt bridge to minimize junction potential) in the donor compartment and a AgCl cathode in the receptor. […] The electrotransport cells were connected in series and constant current (100 uA/cm^2, […] for a skin area of 0.64 cm^2) and temperature (32° C.) were supplied to each cell. After six hours of active/passive transport, aliquots (200 ul) of the receptor were sampled and immediately analyzed by HPLC.
A standard plot of peak area and concentration for each compound was constructed using HPLC. The peak areas of the samples were determined and the concentrations calculated using the standard data. Cumulative flux was calculated using Quickbasic and reported in nmol/cm^2 /hr.

human dermal fibroblasts = assay: in vitro; type: cell-based; conditions: MTT
Protocol: as §1, §2

## CCOC(=O)C[C@H](C[N+](C)(C)C)OC(=O)O[C@H]1CC[C@H]2[C@@H]3CCC4=CC(=O)CC[C@]4(C)[C@H]3CC[C@]12C [Code 1.7, testosterone-17β-(L-carnitine ethyl ester) carbonate, iodide salt]
[1]
  Steady State Flux: 75 ± 14 nmole/cm^2 /h
In vitro [2]; IC50 2 h (cytotoxicity), 2 h incubation
  CC50 at 2 h: 913 µM
In vitro [2]; IC50 16 h (cytotoxicity), 16 h incubation
  CC50 at 16 h: 849 µM
In vitro [3]; sample of 82% purity
  half-life: 4.2 h
Degradation (%/d)
  Degradation: 0 %/d
[4]
  H2O sol: 5.3 mg/mL
[5]
  Flux, active electrotransport (ET): 3.6 ± 1.3 nmol/cm^2 /hr

## CCOC(=O)C[C@H](C[N+](C)(C)C)OC(=O)O[C@H]1CC[C@H]2[C@@H]3CCC4=CC(=O)CC[C@]4(C)[C@H]3CC[C@]12C [Code 4.1, testosterone-17β-(L-carnitine ethyl ester) carbonate, bromide salt]
Human dermal fibroblasts; read-out: IC50 2 h (cytotoxicity), 2 h incubation, 120 min
  CC50: 1400 µM
Human dermal fibroblasts; read-out: IC50 16 h (cytotoxicity), 16 h incubation, 960 min
  CC50: 560 µM
In vitro [3]; HPLC
  half-life: 4 h
Degradation (%/d)
  Degradation: 1 %/d
[4]
  H2O sol: 21.0 mg/mL
[5]; hairless mouse skin, vs unmodified testosterone, 'nearly 10-fold enhancement or greater'
  Enhancement in in vitro electrotransport skin flux compared to testosterone: ≥ 10 fold
[5]
  Flux, active electrotransport (ET): 15.7 ± 5.3 nmol/cm^2 /hr
